Target: T1, Dihydrofolate reductase (Escherichia coli, UniProt P0ABQ4)
T1 sequence (P0ABQ4 whole entry): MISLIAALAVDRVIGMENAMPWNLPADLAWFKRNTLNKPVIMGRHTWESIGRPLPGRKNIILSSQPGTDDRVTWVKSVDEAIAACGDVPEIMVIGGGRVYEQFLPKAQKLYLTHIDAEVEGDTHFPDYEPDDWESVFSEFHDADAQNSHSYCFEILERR
Description: Negative logarithm of inhibition constant (-log Ki) against Dihydrofolate reductase in Escherichia coli

SMILES	Ki
NC1=NCC(Cc2ccc3c(c2)OCCO3)C(N)=N1 (stereo unspecified)	74.1 nM
NC1=NCC(Cc2cc(I)c(O)c(I)c2)C(N)=N1 (stereo unspecified)	1.51 nM
COCCC(=O)c1ccc(CC2CN=C(N)N=C2N)cc1C(=O)CCOC (stereo unspecified)	60.3 nM
CCCOc1cc(CC2CN=C(N)N=C2N)cc(OCCC)c1 (stereo unspecified)	38.9 nM
COc1ccc(CC2CN=C(N)N=C2N)cc1OS(C)(=O)=O (stereo unspecified)	15.8 nM
COc1cc(CC2CN=C(N)N=C2N)ccc1Cc1ccccc1 (stereo unspecified)	29.5 nM
CS(=O)(=O)Oc1cccc(CC2CN=C(N)N=C2N)c1 (stereo unspecified)	120 nM
Cc1cc(CC2CN=C(N)N=C2N)cc(C)c1O (stereo unspecified)	27.5 nM
COc1cc(CC2CN=C(N)N=C2N)ccc1OS(C)(=O)=O (stereo unspecified)	11.5 nM
COc1c(I)cc(CC2CN=C(N)N=C2N)cc1I (stereo unspecified)	1.51 nM
NC1=NCC(Cc2ccc([N+](=O)[O-])cc2)C(N)=N1 (stereo unspecified)	631 nM
CCCCCCOc1cccc(CC2CN=C(N)N=C2N)c1 (stereo unspecified)	138 nM
COc1ccc(CC2CN=C(N)N=C2N)cc1O (stereo unspecified)	145 nM
COc1cc(CC2CN=C(N)N=C2N)cc(OC)c1OCc1ccccc1 (stereo unspecified)	3.8 nM
COc1c(C)cc(CC2CN=C(N)N=C2N)cc1C (stereo unspecified)	18.2 nM
CS(=O)(=O)Oc1ccc(CC2CN=C(N)N=C2N)cc1 (stereo unspecified)	251 nM
NC1=NCC(Cc2ccc(OC(F)(F)F)cc2)C(N)=N1 (stereo unspecified)	269 nM
CCc1cc(CC2CN=C(N)N=C2N)cc(CC)c1CC (stereo unspecified)	15.1 nM

SMILES	Ki
COc1cc(CC2CN=C(N)N=C2N)cc(OC)c1Br (stereo unspecified)	6.61 nM
CCCCCCOc1c(OC)cc(CC2CN=C(N)N=C2N)cc1OC (stereo unspecified)	13.5 nM
NC1=NCC(Cc2ccc(O)cc2)C(N)=N1 (stereo unspecified)	355 nM
COc1ccc(CC2CN=C(N)N=C2N)cc1OCc1ccccc1 (stereo unspecified)	21.9 nM
Cc1cc(C)cc(CC2CN=C(N)N=C2N)c1 (stereo unspecified)	91.2 nM
COCCc1c(OC)cc(CC2CN=C(N)N=C2N)cc1OC (stereo unspecified)	4.47 nM
COc1ccc(CC2CN=C(N)N=C2N)cc1C(F)(F)F (stereo unspecified)	20.4 nM
COCCCCCCCOc1c(OC)cc(CC2CN=C(N)N=C2N)cc1OC (stereo unspecified)	63.1 nM
COCCOc1ccc(CC2CN=C(N)N=C2N)cc1OC (stereo unspecified)	17 nM
COc1cc(CC2CN=C(N)N=C2N)ccc1O (stereo unspecified)	28.8 nM
NC1=NCC(Cc2ccc(OCc3ccccc3)cc2)C(N)=N1 (stereo unspecified)	129 nM
COCCCCCCCOc1cc(CC2CN=C(N)N=C2N)ccc1OC (stereo unspecified)	69.2 nM
Cc1cc(CC2CN=C(N)N=C2N)cc(Cl)c1N (stereo unspecified)	1.35 nM
COc1cc(CC2CN=C(N)N=C2N)cc(OC)c1C (stereo unspecified)	2.69 nM
CC(=O)Nc1ccc(CC2CN=C(N)N=C2N)cc1[N+](=O)[O-] (stereo unspecified)	107 nM
NC1=NCC(Cc2cc(Cl)c(N)c(Cl)c2)C(N)=N1 (stereo unspecified)	1.35 nM
NC1=NCC(Cc2cc(Br)c(N)c(Br)c2)C(N)=N1 (stereo unspecified)	1.41 nM
CCCCCCCCOc1c(OC)cc(CC2CN=C(N)N=C2N)cc1OC (stereo unspecified)	13.5 nM
